The values below come from US9499550B2 (BRISTOL-MYERS SQUIBB COMPANY, priority 2012, dated 2016).

The EC50 is the midpoint of the concentration-response curve.

In assay [1] the test system is HCV genotype 1a (H77 strain) replicon in HUH-7 cells. Kind of assay: HCV replicon luciferase reporter assay, genotype 1a. The format is cell-based. Conditions: Hepatitis C virus, Huh-7, 72 h, HCV genotype 1a replicon luciferase, 3 days incubation. In short, it runs like this:
(§1)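 Replicon inhibition for both genotypes was measured as Renilla luciferase signal (EnduRen, 7.5 μM final, 2 h) after 3-day, 37° C exposure of replicon-bearing HUH-7 cells in 4% FCS DMEM, 0.5% DMSO. The 1b construct carries S1179I; the 1a H77 construct carries P1496L and S2204I. Twenty-point, 3-fold dilutions were fitted four-parametrically for EC50, and CC50 was taken from multiplexed Cell Titer-Blue.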

Assay [2] has as its system HCV genotype 1b (Con1) replicon in HUH-7 cells. Kind of assay: HCV replicon luciferase reporter assay, genotype 1b. The format is cell-based. Conditions: Hepatitis C virus, Huh-7, 72 h, HCV genotype 1b replicon luciferase, 3 days incubation. The procedure, abridged: as §1
(In general: A replicon is a self-replicating genome or part of one, used to study replication in cells.)

The structures appear in SMILES notation. Read-outs that look alike come from different tables or passages of the source.

In the case of `C[C@H]1CC/C=C\[C@@H]2C[C@@]2(C(=O)NS(=O)(=O)C2(C)CC2)NC(=O)[C@@H]2C[C@@H](Oc3nccc4c5c(ccc34)OCCO5)CN2C(=O)[C@@H](NC(=O)O[C@H](C)C(F)(F)F)[C@H](C)C1` [Compound 5252, (R)-1,1,1-trifluoropropan-2-yl ((2R,6S,7R,9S,13aS,14aR,16aS,Z)-2-((2,3-dihydro-[1,4]dioxino[2,3-f]isoquinolin-7-yl)oxy)-7,9-dimethyl-14a-(((1-methylcyclopropyl)sulfonyl)carbamoyl)-5,16-dioxo-1,2,3,5,6,7,8,9,10,11,13a,14,14a,15,16,16a-hexadecahydrocyclopropa[e]pyrrolo[1,2-a][1,4]diazacyclopentadecin-6-yl)carbamate], the EC50 is 15.1 nM in assay [1] (read-out: LE_1a (EC50)); 4.82 to 103 nM in assay [1] (read-out: LE_1a (EC50, range)); 4.04 nM in assay [2] (read-out: LE_1b (EC50)); under 5.46 nM in assay [2] (read-out: LE_1b (EC50, range)).

In the case of `C[C@@H]1CC/C=C\[C@@H]2C[C@@]2(C(=O)NS(=O)(=O)C2(C)CC2)NC(=O)[C@@H]2C[C@@H](Oc3nccc4c5c(ccc34)OCCO5)CN2C(=O)[C@@H](NC(=O)O[C@H](C)C(F)(F)F)[C@H](C)C1` [Compound 5253, (R)-1,1,1-trifluoropropan-2-yl ((2R,6S,7R,9R,13aS,14aR,16aS,Z)-2-((2,3-dihydro-[1,4]dioxino[2,3-f]isoquinolin-7-yl)oxy)-7,9-dimethyl-14a-(((1-methylcyclopropyl)sulfonyl)carbamoyl)-5,16-dioxo-1,2,3,5,6,7,8,9,10,11,13a,14,14a,15,16,16a-hexadecahydrocyclopropa[e]pyrrolo[1,2-a][1,4]diazacyclopentadecin-6-yl)carbamate], the concentration for a half-maximal effect (EC50) is under 5.46 nM in assay [1] (read-out: LE_1a (EC50, range)) and under 5.46 nM in assay [2] (read-out: LE_1b (EC50, range)).

Take `C[C@H]1CC/C=C\[C@@H]2C[C@@]2(C(=O)NS(=O)(=O)C2CC2)NC(=O)[C@@H]2C[C@@H](Oc3nccc4c5c(ccc34)OC(F)(F)O5)CN2C(=O)[C@@H](NC(=O)OC(C)(C)C)[C@H](C)C1` [Compound 5256, tert-butyl ((2R,6S,7R,9S,13aS,14aR,16aS,Z)-14a-((cyclopropylsulfonyl)carbamoyl)-2-((2,2-difluoro-[1,3]dioxolo[4,5-f]isoquinolin-6-yl)oxy)-7,9-dimethyl-5,16-dioxo-1,2,3,5,6,7,8,9,10,11,13a,14,14a,15,16,16a-hexadecahydrocyclopropa[e]pyrrolo[1,2-a][1,4]diazacyclopentadecin-6-yl)carbamate]: the EC50 in assay [1] (read-out: LE_1a (EC50)) is 20.9 nM; in assay [1] (read-out: LE_1a (EC50, range)) it was 4.82 to 103 nM; in assay [2] (read-out: LE_1b (EC50)), 12.9 nM; in assay [2] (read-out: LE_1b (EC50, range)) it was 4.82 to 103 nM.

Consider `C[C@@H]1CC/C=C\[C@@H]2C[C@@]2(C(=O)NS(=O)(=O)C2CC2)NC(=O)[C@@H]2C[C@@H](Oc3nccc4c5c(ccc34)OC(F)(F)O5)CN2C(=O)[C@@H](NC(=O)OC(C)(C)C)[C@H](C)C1` [Compound 5257, tert-butyl ((2R,6S,7R,9R,13aS,14aR,16aS,Z)-14a-((cyclopropylsulfonyl)carbamoyl)-2-((2,2-difluoro-[1,3]dioxolo[4,5-f]isoquinolin-6-yl)oxy)-7,9-dimethyl-5,16-dioxo-1,2,3,5,6,7,8,9,10,11,13a,14,14a,15,16,16a-hexadecahydrocyclopropa[e]pyrrolo[1,2-a][1,4]diazacyclopentadecin-6-yl)carbamate], for which the EC50 in assay [1] (read-out: LE_1a (EC50, range)) is under 5.46 nM; in assay [2] (read-out: LE_1b (EC50, range)), under 5.46 nM.

Take `C[C@H]1CC/C=C\[C@@H]2C[C@@]2(C(=O)NS(=O)(=O)C2CC2)NC(=O)[C@@H]2C[C@@H](Oc3nccc4c5c(ccc34)OCCO5)CN2C(=O)[C@@H](NC(=O)OC(C)(C)C(F)(F)F)[C@H](C)C1` [Compound 5258, 1,1,1-trifluoro-2-methylpropan-2-yl((2R,6S,7R,9S,13aS,14aR,16aS,Z)-14a-((cyclopropylsulfonyl)carbamoyl)-2-((2,3-dihydro-[1,4]dioxino[2,3-f]isoquinolin-7-yl)oxy)-7,9-dimethyl-5,16-dioxo-1,2,3,5,6,7,8,9,10,11,13a,14,14a,15,16,16a-hexadecahydrocyclopropa[e]pyrrolo[1,2-a][1,4]diazacyclopentadecin-6-yl)carbamate]: the concentration for a half-maximal effect (EC50) is 4.82 to 103 nM in assay [1] (read-out: LE_1a (EC50, range)) and under 5.46 nM in assay [2] (read-out: LE_1b (EC50, range)).

For `C[C@@H]1CC/C=C\[C@@H]2C[C@@]2(C(=O)NS(=O)(=O)C2CC2)NC(=O)[C@@H]2C[C@@H](Oc3nccc4c5c(ccc34)OCCO5)CN2C(=O)[C@@H](NC(=O)OC(C)(C)C(F)(F)F)[C@H](C)C1` [Compound 5259, 1,1,1-trifluoro-2-methylpropan-2-yl((2R,6S,7R,9R,13aS,14aR,16aS,Z)-14a-((cyclopropylsulfonyl)carbamoyl)-2-((2,3-dihydro-[1,4]dioxino[2,3-f]isoquinolin-7-yl)oxy)-7,9-dimethyl-5,16-dioxo-1,2,3,5,6,7,8,9,10,11,13a,14,14a,15,16,16a-hexadecahydrocyclopropa[e]pyrrolo[1,2-a][1,4]diazacyclopentadecin-6-yl)carbamate], the EC50 in assay [1] (read-out: LE_1a (EC50, range)) was under 5.46 nM; in assay [2] (read-out: LE_1b (EC50, range)), under 5.46 nM.

As to `CCC(C)(OC(=O)N[C@@H]1C(=O)N2C[C@H](Oc3nccc4c5c(ccc34)OCCO5)C[C@H]2C(=O)N[C@]2(C(=O)NS(=O)(=O)C3CC3)C[C@H]2/C=C\CC[C@@H](C)C[C@H]1C)C(F)(F)F` (stereo partly drawn) [Compound 5260], the EC50 in assay [1] (GETYPE1A, read-out: LE_1a (EC50, range)) was under 5.46 nM; in assay [2] (GETYPE1B, read-out: LE_1b (EC50, range)), under 5.46 nM.

Consider `CCC(CC)(OC(=O)N[C@@H]1C(=O)N2C[C@H](Oc3nccc4c5c(ccc34)OCCO5)C[C@H]2C(=O)N[C@]2(C(=O)NS(=O)(=O)C3CC3)C[C@H]2/C=C\CC[C@H](C)C[C@H]1C)C(F)(F)F` [Compound 5261, 3-(trifluoromethyl)pentan-3-yl ((2R,6S,7R,9S,13aS,14aR,16aS,Z)-14a-((cyclopropylsulfonyl)carbamoyl)-2-((2,3-dihydro-[1,4]dioxino[2,3-f]isoquinolin-7-yl)oxy)-7,9-dimethyl-5,16-dioxo-1,2,3,5,6,7,8,9,10,11,13a,14,14a,15,16,16a-hexadecahydrocyclopropa[e]pyrrolo[1,2-a][1,4]diazacyclopentadecin-6-yl)carbamate], for which the half-maximal effective concentration (EC50) is 14.3 nM in assay [1] (read-out: LE_1a (EC50)); 4.82 to 103 nM in assay [1] (read-out: LE_1a (EC50, range)); 2.18 nM in assay [2] (read-out: LE_1b (EC50)); under 5.46 nM in assay [2] (read-out: LE_1b (EC50, range)).

Consider `CCC(CC)(OC(=O)N[C@@H]1C(=O)N2C[C@H](Oc3nccc4c5c(ccc34)OCCO5)C[C@H]2C(=O)N[C@]2(C(=O)NS(=O)(=O)C3CC3)C[C@H]2/C=C\CC[C@@H](C)C[C@H]1C)C(F)(F)F` [Compound 5262, 3-(trifluoromethyl)pentan-3-yl ((2R,6S,7R,9R,13aS,14aR,16aS,Z)-14a-((cyclopropylsulfonyl)carbamoyl)-2-((2,3-dihydro-[1,4]dioxino[2,3-f]isoquinolin-7-yl)oxy)-7,9-dimethyl-5,16-dioxo-1,2,3,5,6,7,8,9,10,11,13a,14,14a,15,16,16a-hexadecahydrocyclopropa[e]pyrrolo[1,2-a][1,4]diazacyclopentadecin-6-yl)carbamate], for which the EC50 is under 5.46 nM in assay [1] (read-out: LE_1a (EC50, range)) and under 5.46 nM in assay [2] (read-out: LE_1b (EC50, range)).

As to `C[C@H]1CC/C=C\[C@@H]2C[C@@]2(C(=O)NS(=O)(=O)C2CC2)NC(=O)[C@@H]2C[C@@H](Oc3nccc4c5c(ccc34)OCCO5)CN2C(=O)[C@@H](NC(=O)O[C@@H]2C[C@@H]3C[C@@H]3C2)[C@H](C)C1` [Compound 5263, (1R,3r,5S)-bicyclo[3.1.0]hexan-3-yl((2R,6S,7R,9S,13aS,14aR,16aS,Z)-14a-((cyclopropylsulfonyl)carbamoyl)-2-((2,3-dihydro-[1,4]dioxino[2,3-f]isoquinolin-7-yl)oxy)-7,9-dimethyl-5,16-dioxo-1,2,3,5,6,7,8,9,10,11,13a,14,14a,15,16,16a-hexadecahydrocyclopropa[e]pyrrolo[1,2-a][1,4]diazacyclopentadecin-6-yl)carbamate], the concentration giving a half-maximal response (EC50) in assay [1] (read-out: LE_1a (EC50, range)) is 4.82 to 103 nM; in assay [2] (read-out: LE_1b (EC50, range)), under 5.46 nM.

In the case of `C[C@@H]1CC/C=C\[C@@H]2C[C@@]2(C(=O)NS(=O)(=O)C2CC2)NC(=O)[C@@H]2C[C@@H](Oc3nccc4c5c(ccc34)OCCO5)CN2C(=O)[C@@H](NC(=O)O[C@@H]2C[C@@H]3C[C@@H]3C2)[C@H](C)C1` [Compound 5264, (1R,3r,5S)-bicyclo[3.1.0]hexan-3-yl((2R,6S,7R,9R,13aS,14aR,16aS,Z)-14a-((cyclopropylsulfonyl)carbamoyl)-2-((2,3-dihydro-[1,4]dioxino[2,3-f]isoquinolin-7-yl)oxy)-7,9-dimethyl-5,16-dioxo-1,2,3,5,6,7,8,9,10,11,13a,14,14a,15,16,16a-hexadecahydrocyclopropa[e]pyrrolo[1,2-a][1,4]diazacyclopentadecin-6-yl)carbamate], the EC50 in assay [1] (read-out: LE_1a (EC50, range)) is under 5.46 nM; in assay [2] (read-out: LE_1b (EC50, range)) it was under 5.46 nM.

Turning to `CCC(C)(CC)OC(=O)N[C@@H]1C(=O)N2C[C@H](Oc3nccc4c5c(ccc34)OCCO5)C[C@H]2C(=O)N[C@]2(C(=O)NS(=O)(=O)C3CC3)C[C@H]2/C=C\CC[C@H](C)C[C@H]1C` [Compound 5265, 3-methylpentan-3-yl((2R,6S,7R,9S,13aS,14aR,16aS,Z)-14a-((cyclopropylsulfonyl)carbamoyl)-2-((2,3-dihydro-[1,4]dioxino[2,3-f]isoquinolin-7-yl)oxy)-7,9-dimethyl-5,16-dioxo-1,2,3,5,6,7,8,9,10,11,13a,14,14a,15,16,16a-hexadecahydrocyclopropa[e]pyrrolo[1,2-a][1,4]diazacyclopentadecin-6-yl)carbamate], the half-maximal effective concentration (EC50) in assay [1] (read-out: LE_1a (EC50, range)) is 4.82 to 103 nM; in assay [2] (read-out: LE_1b (EC50, range)) it was under 5.46 nM.
